Experimental data taken from ChEMBL document CHEMBL1156259, “Synthesis and biological evaluation of amidine, guanidine, and thiourea derivatives of 2-amino(6-trifluoromethoxy)benzothiazole as neuroprotective agents potentially useful in brain diseases” (J Med Chem, 2010).
The source made the active and inactive calls. No cut-off for these calls is given here.

Legend:
Rattus norvegicus [1] = species on record: Rattus norvegicus; settings: Wistar, Piriform cortex, at 60 µM
Description: Inhibition of voltage-dependent Ca(+) channel in Wistar rat brain piriform cortex acutely dissociated neurons assessed as effect on half activation potential of high voltage activated Ba+ current at 60 uM by whole cell patch clamp assay

Rattus norvegicus [2] = species on record: Rattus norvegicus; settings: Wistar, Piriform cortex, at 60 µM; remark: listed apart in the source
Description: Inhibition of voltage-dependent Ca(+) channel in Wistar rat brain piriform cortex acutely dissociated neurons assessed as effect on high voltage activated Ba+ current deactivation at 60 uM by whole cell patch clamp assay

Cortex [3] = assay: Neuroprotective activity in Sprague-Dawley rat brain cortex slices assessed as drug concentration causing maximum reduction of oxygen/glucose deprivation-induced glutamate release; type: functional; settings: read-out: MEC
Cortex [4] = assay: Neuroprotective activity in Sprague-Dawley rat brain cortex slices assessed as reduction of oxygen/glucose deprivation-induced LDH release at minimal effective concentration; type: functional; set-up: scale not given: the % may be the effect or the level left
[5] = Antioxidant activity assessed as ABTS+ radical scavenging activity by spectrophotometry relative to 1 mM Trolox; type: functional
Rattus norvegicus [6] = species on record: Rattus norvegicus; settings: Wistar, Piriform cortex, at 60 µM; remark: listed apart in the source
Description: Inhibition of voltage-dependent Ca(+) channel in Wistar rat brain piriform cortex acutely dissociated neurons assessed as effect on high voltage activated Ba+ current activation speed at 60 uM by whole cell patch clamp assay

Rattus norvegicus [7] = species on record: Rattus norvegicus; settings: Wistar, Piriform cortex, at 50 µM
Description: Inhibition of voltage-dependent Na(+) channel in Wistar rat brain piriform cortex layer 2 assessed as inhibition of transient Na+ current amplitude at 50 uM under holding potential of -80 mV by whole cell patch clamp assay

Cortex [8] = assay: Neuroprotective activity in Sprague-Dawley rat brain cortex slices assessed as interval of drug concentration causing reduction of oxygen/glucose deprivation-induced LDH release; type: functional
Cortex [9] = assay: Neuroprotective activity in Sprague-Dawley rat brain cortex slices assessed as reduction of oxygen/glucose deprivation-induced glutamate release at minimal effective concentration; type: functional; set-up: scale not given: the % may be the effect or the level left
Cortex [10] = assay: Neuroprotective activity in Sprague-Dawley rat brain cortex slices assessed as drug concentration causing maximum reduction of oxygen/glucose deprivation-induced LDH release; type: functional; settings: read-out: MEC
Cortex [11] = assay: Neuroprotective activity in Sprague-Dawley rat brain cortex slices assessed as interval of drug concentration causing reduction of oxygen/glucose deprivation-induced glutamate release; type: functional
cells = type: tissue-based; settings: Rattus norvegicus, Wistar, Piriform cortex
Description: Inhibition of voltage-dependent Ca(+) channel in Wistar rat brain piriform cortex acutely dissociated neurons assessed as inhibition of high voltage activated Ba+ current amplitude at under holding potential of -60 mV by whole cell patch clamp assay

[12] = biological target: Nitric oxide synthase 1 (Rattus norvegicus) (UniProt P29476); assay: Inhibition of nNOS in Sprague-Dawley rat brain assessed as nitric oxide-mediated conversion of oxyhemoglobin to methemoglobin
Nitric oxide synthase 1 (Rattus norvegicus), sequence (P29476 whole entry): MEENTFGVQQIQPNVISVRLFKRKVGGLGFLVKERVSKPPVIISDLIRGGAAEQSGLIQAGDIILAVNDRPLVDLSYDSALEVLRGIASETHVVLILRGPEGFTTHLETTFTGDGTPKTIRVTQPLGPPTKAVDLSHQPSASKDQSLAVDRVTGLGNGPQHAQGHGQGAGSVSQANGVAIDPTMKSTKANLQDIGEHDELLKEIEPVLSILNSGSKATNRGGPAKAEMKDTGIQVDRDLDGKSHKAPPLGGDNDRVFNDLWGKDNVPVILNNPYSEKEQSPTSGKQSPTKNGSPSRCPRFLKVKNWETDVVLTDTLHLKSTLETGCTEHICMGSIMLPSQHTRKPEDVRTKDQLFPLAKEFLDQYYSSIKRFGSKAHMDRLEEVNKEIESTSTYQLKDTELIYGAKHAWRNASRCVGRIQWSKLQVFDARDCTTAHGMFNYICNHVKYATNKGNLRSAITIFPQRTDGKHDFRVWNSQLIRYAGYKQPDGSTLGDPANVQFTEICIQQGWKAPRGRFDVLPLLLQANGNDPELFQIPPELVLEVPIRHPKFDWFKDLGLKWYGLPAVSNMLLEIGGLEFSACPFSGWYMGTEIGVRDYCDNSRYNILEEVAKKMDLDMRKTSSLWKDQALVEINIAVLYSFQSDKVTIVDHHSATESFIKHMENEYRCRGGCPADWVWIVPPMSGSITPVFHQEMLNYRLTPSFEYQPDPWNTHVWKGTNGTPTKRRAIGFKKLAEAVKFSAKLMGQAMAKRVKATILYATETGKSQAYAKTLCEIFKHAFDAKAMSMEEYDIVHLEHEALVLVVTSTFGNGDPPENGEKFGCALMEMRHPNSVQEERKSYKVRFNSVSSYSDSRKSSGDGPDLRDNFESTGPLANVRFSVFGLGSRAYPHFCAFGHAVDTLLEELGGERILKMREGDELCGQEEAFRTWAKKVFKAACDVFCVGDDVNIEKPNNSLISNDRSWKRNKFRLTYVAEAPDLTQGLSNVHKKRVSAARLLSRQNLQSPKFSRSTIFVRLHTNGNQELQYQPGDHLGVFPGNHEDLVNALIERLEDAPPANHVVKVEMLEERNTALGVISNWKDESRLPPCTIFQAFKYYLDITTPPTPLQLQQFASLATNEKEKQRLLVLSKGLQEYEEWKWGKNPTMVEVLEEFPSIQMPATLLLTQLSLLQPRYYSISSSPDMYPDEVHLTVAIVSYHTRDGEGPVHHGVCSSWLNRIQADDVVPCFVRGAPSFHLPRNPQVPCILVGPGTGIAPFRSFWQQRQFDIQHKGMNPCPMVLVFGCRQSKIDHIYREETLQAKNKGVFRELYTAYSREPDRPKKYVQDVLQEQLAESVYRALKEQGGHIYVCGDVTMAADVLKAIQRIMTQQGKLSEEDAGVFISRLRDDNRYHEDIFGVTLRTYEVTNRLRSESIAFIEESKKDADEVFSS

Compound | inhibition (Rattus norvegicus [1]) | inhibition (Rattus norvegicus [2]) | minimal effective concentration (Cortex [3]) [µM] | Activity (Cortex [4]) [%] | Ratio [5] | inhibition (Rattus norvegicus [6]) | inhibition (Rattus norvegicus [7]) [%] | Activity (Cortex [8]) [µM] | Activity (Cortex [9]) [%] | minimal effective concentration (Cortex [10]) [µM] | Activity (Cortex [11]) [µM] | IC50 (cells) [µM] | inhibition [5] | inhibition [12]
CCCCNC(=S)Nc1nc2ccc(OC(F)(F)F)cc2s1 | inactive | Active | 1 | 32 | 0.98 | inactive | 0 | 0.01 | 100 | 0.01 | 0.01 | 24.1 |  | 
Nc1nc2ccc(OC(F)(F)F)cc2s1 [RILUZOLE] | inactive | Active | 1 | 100 |  | inactive | > 50 | 0.1 | 100 | 10 | 1 | 34.2 | inactive | 
CCNC(=S)Nc1nc2ccc(OC(F)(F)F)cc2s1 |  |  | 1 | 73.1 | 0.88 |  |  | 0.1 | 80.1 | 0.1 | 1 |  |  | 
CCCNC(=S)Nc1nc2ccc(OC(F)(F)F)cc2s1 |  |  | 0.01 | 60.9 | 0.5 |  | 15 | 0.01 | 94.2 | 0.01 | 0.01 |  |  | 
C/C(=N\c1nc2ccc(OC(F)(F)F)cc2s1)N(C)C |  |  | 0.1 | 56.9 |  |  |  | 0.1 | 100 | 0.1 | 0.1 |  |  | inactive
O=c1c2ccccc2[se]n1-c1ccccc1 |  |  |  |  | 0.32 |  |  |  |  |  |  |  |  | 
CC(C)NC(=S)Nc1nc2ccc(OC(F)(F)F)cc2s1 |  |  | 0.1 | 50 | 0.64 |  |  | 0.01 | 80.3 | 0.01 | 0.01 |  |  | 
